Earlier results in patent publication US20050158402A1, “Preparation of Chinese herbal composite recipe used in environmental sanitation” (priority 2004, published 2005).
Entries after “also recorded” stand apart in the source; their conditions may differ.

Columns and labels:
B-streptococcus = details: 1% matrine, in vitro
Shigella = details: 1% matrine, in vitro
Proteus = details: 1% matrine, in vitro
Staphylococcus aureaus = details: 1% matrine, in vitro
E. Coli = details: 1% matrine, in vitro
[1] = tested on: type A hemolytic Streptococcus
Shigella species = details: in vitro

In the case of O=C1CCC[C@@H]2[C@H]3CCCN4CCC[C@@H](CN12)[C@@H]34 [matrine], the “bacteria inhibitive effects on B-streptococcus” value (B-streptococcus) is given as “bacteria inhibitive effects on Shigella, E. Coli, Proteus,”, the “bacteria inhibitive effects on Shigella” value (Shigella) is given as “bacteria inhibitive effects on Shigella, E. Coli, Proteus,” and the “bacteria inhibitive effects on Proteus” value (Proteus) is given as “bacteria inhibitive effects on Shigella, E. Coli, Proteus,”. For the same compound, the “bacteria inhibitive effects on Staphylococcus aureaus” value (Staphylococcus aureaus) was “bacteria inhibitive effects on Shigella, E. Coli, Proteus,” and the “bacteria inhibitive effects on E. Coli” value (E. Coli) was “bacteria inhibitive effects on Shigella, E. Coli, Proteus,”.
For Cc1cc(O)c(C(=O)CCC(C)C)c(=O)o1 [pogostone], the “inhibitive effect on type A hemolytic Streptococcus” value [1] is given as “stolonifer. It shows certain degree of inhibitive effect on type”, the “inhibitive effects on Cryptococcus neoformans” value (Cryptococcus neoformans) is given as “The pogostone show apparently inhibitive effects on fungi” and the “inhibit the growth of fungi such as Penicillum” value (Penicillum) is given as 22(7): 318) The pogostone can inhibit the growth of fungi. For the same compound, the “inhibitive effects on Rhizopus stolonifer” value (Rhizopus stolonifer) was “The pogostone show apparently inhibitive effects on fungi” and the “inhibitive effects on C. albicans” value (C. albicans) was “The pogostone show apparently inhibitive effects on fungi”.
For CC[C@@H]1[C@H]2CCCCN3[C@H]2[C@H](C[C@H]3[C@@H]2C[C@H](C)C(=O)O2)[C@@H]2[C@H]1OC(=O)[C@H]2C [tuberostemonine], the “paralyze Ascarid” value (Ascarid) is listed as “can paralyze”.
In the case of C/C(=C/CC[C@]1(C)C2C[C@@H]3[C@H](C2)C31C)CO [α - santol], the anti-bacteria effects (bacteria) is listed as “The α - santol and β -santol show stronger anti-bacteria”.
In the case of C=C1[C@@H]2CC[C@@H](C2)[C@@]1(C)CC/C=C(/C)CO [β -santol], the anti-bacteria effects (bacteria) is listed as “The α - santol and β -santol show stronger anti-bacteria”.
In the case of evodiamine, the “anti-viruses effect on rats infected by Columbia SK viruses” value (Columbia SK viruses) is listed as “anti-viruses effect; also recorded: anti-virus effect”.
For santol, the “effective to Shigella species” value (Shigella species) is listed as “effective”.
